Laboratory results reported in US11608319B2, “Beta-amino acid derivative, kinase inhibitor and pharmaceutical composition containing the same, and method for performing an in vivo related application that benefits from the inhibition of a kinase” (Industrial Technology Research Institute, priority 2019, dated 2023).
Structures can show the parent of a compound that is named as a salt. Where two headings read alike, the source gives them in different places.

Legend:
ROCK1 = ROCK1 (Homo sapiens (Human), UniProt Q13464); test: biochemical
MYLK4 = MYLK4 (Homo sapiens (Human), UniProt Q86YV6); test: Assay for inhibitory effect on MYLK-4, LanthaScreen Eu Kinase Binding Assay
YSK4 = YSK4 (Homo sapiens (Human), UniProt Q56UN5); test: Assay for inhibitory effect on YSK-4, Z'-LYTE kinase assay; format: biochemical; conditions: ATP 5 μM
Procedure: C. Assay for Inhibitory Effect on YSK-4
The experimental procedure referred to the Z′-LYTE Screening Protocol and Assay Conditions provided by ThermoFisher Scientific.
C-1. Material Preparation
Peptide/Kinase Mixture was pre-diluted with Kinase Buffer to 2× working concentration.
ATP solution was pre-diluted with Kinase Buffer (50 mM HEPES pH 7.5, 0.01% BRIJ-35, 10 mM MgCl2, 1 mM EGTA) to 4× working concentration.
The development reagent solution is Novel PKC Lipid Mix, which contains 2 mg/mL Phosphatidyl Serine, 0.2 mg/mL DAG in 20 mM HEPES, pH 7.4 and 0.3% CHAPS, and was pre-diluted 10 fold with development buffer.
1. 100 nL of the above diluted test compound and 2.4 μL of kinase buffer were added to a black 384-well plate (Corning, Cat. NO. 4514), then add 5 μL of the peptide/kinase mixture mentioned above was added thereto, and after that 2.5 μL of ATP solution was added thereto, and the culture plate was shaken for 30 seconds.
2. Next, the culture plate was placed at room temperature and incubated for 60 minutes.
3. After that 5 μL of the development reagent solution was added and the culture plate was shaken for 30 seconds in the dark, and then the data was read and analyzed with a fluorescence plate reader.
In addition, for the kinase, the following control group was prepared and placed on the same culture plate as the kinase:
(1) 0% Phosphorylation Control (100% Inhibition Control)
This control yields 100% cleaved peptide in the Development Reaction.
(2) 100% Phosphorylation Control
A synthetically phosphorylated peptide of the same sequence as the peptide substrate is used as the 100% Phosphorylation Control.
The Phosphorylation percent achieved in a specific reaction well (Experimental group) was calculated based on the 0% Phosphorylation Control and 100% Phosphorylation Control.

[1] = tested on: rabbit eyes with normal intraocular pressure; test: Evaluation of the effect of decreasing intraocular pressure in a model of rabbit with normal intraocular pressure; format: in vivo, New Zealand white rabbit; conditions: for Intraocular pressure difference (mmHg): at time point of maximum effect
Procedure: Evaluation of the Effect of Decreasing Intraocular Pressure in a Model of Rabbit with Normal Intraocular Pressure
Experimental animal: New Zealand white rabbit, male, weighing more than 2 kg. New Zealand white rabbits were purchased from Huijun Farm (Changhua, Taiwan). After a one-week quarantine period, they were raised in MASTER LABORATORY Co., Ltd under the environmental conditions of 16-22° C., 30-70% relative humidity (RH), 8 hours day/16 hours night.
(1) Evaluation of the Effect of Reducing Intraocular Pressure
After weighing 12 New Zealand white rabbits (2.0-4.0 kg) and grouping them (n=3-6 in each group), the white rabbits were fixed with a wrap.

[2] = tested on: rabbit eyes with high intraocular pressure induced by magnetic beads; test: Model of magnetic bead induced high intraocular pressure rabbit (intraocular pressure >30 mmHg); format: in vivo, New Zealand white rabbit; conditions: for Maximum intraocular pressure difference (mmHg): experiment of Table 13
Text: Evaluation of the effect of reducing intraocular pressure in model of magnetic bead induced high intraocular pressure rabbit (high intraocular pressure model with intraocular pressure >30 mmHg)
Experimental animal: New Zealand white rabbit, male, body weight 2.0-3.0 kg. New Zealand white rabbits were purchased from Huijun Farm (Changhua, Taiwan) before the experiment and were raised in the Animal Center of National Chiao Tung University.
Experimental method: After weighing and grouping male New Zealand white rabbits, the New Zealand white rabbits were anesthetized with Zoletil 50 0.2 mL/kg. 50 μL of magnetic bead solution (50 mg/mL, magnetic bead size of 10 μm) was injected into the left and right anterior eye chambers of the rabbit under anesthesia to make rabbit eyes become a state of high intraocular pressure. After the injection to the anterior chamber of the eye, a strong […] iron magnet ring was immediately put around the eye for 10-20 minutes to make the magnetic beads completely block the drainage tissue of the aqueous humor. After disinfecting the eyeball with antibiotics, moisturizing eye ointment was provided to restore the eyeball, and the intraocular pressure rising was waited. […] The experiment was conducted for 2 consecutive days.

[3] = tested on: rabbit eyes with normal intraocular pressure; conditions: eye drop concentration
Procedure: The maximal effect (Emax) dose evaluation of the intraocular pressure reduction model in normal rabbit
Animals: Male New Zealand white rabbits (n=7/each group);
Administration: 50 μL of the test compound was instilled in the right eye (dosed eye) and 50 μL of the vehicle (without the test compound) in the left eye (control eye) of each experimental animal. The 3 formulation mentioned above were administered once a day for 3 consecutive days.
The intraocular pressure of each animal was measured by Tono-Vet (iCare) before administration (0 hours) and 2, 4, 6 and 8 hours after administration on Day 1 and Day 3.
The maximum magnitude of the reduction in intraocular pressure %=(Intraocular pressure of the control eye−Intraocular pressure of the dosed eye)/Intraocular pressure of the control eye*100
The data presented in this experiment is the data that has removed the unqualified data (white rabbits with an intraocular pressure difference ≥2 mmHg (n=1) in the two eyes on Day 1 and >5 mmHg in the two eyes before the administration on the Day 3 (n=1) have been removed) and removed the rebound high intraocular pressure (n=3).

rabbit eyes = test: Safety margin assay (eye irritation, OECD/OCDE 405)
[4] = tested on: rabbit eyes with high intraocular pressure induced by hypertonic saline; test: Model of hypertonic saline induced high intraocular pressure rabbit (acute high intraocular pressure model); format: in vivo, New Zealand white rabbit; parameters: AUC: unit not given beside the values
Text: Evaluation of the effect of reducing intraocular pressure in model of hypertonic saline induced high intraocular pressure rabbit (acute high intraocular pressure model)
Experimental animal: New Zealand white rabbit, male, weighing 2.0-3.0 kg. New Zealand white rabbits were purchased from a qualified laboratory animal rabbit farm in Taiwan before the experiment and were raised in the Animal Center of National Chiao Tung University.
Negative control 1: Physiological saline
Negative control 2: Vehicle without test substance (containing 5% mannitol, 20 mM boric acid and 0.125% nonoxynol-9)
Experimental method: male New Zealand white rabbits were weighed and grouped and then anesthetized. 160 μL of hypertonic saline (5% NaCl) was injected into the vitreous bodies of the left and right eyes of the rabbit under anesthesia, so that the rabbit eyes became a state of high intraocular pressure. […] The intraocular pressure (TOP) detection time points were before anesthesia (0 hours) and 0.5, 1, 1.5, 3, and 5 hours after administration.
Maximum intraocular pressure difference: The difference between an individual's TOP readings and the average TOP readings of the negative control group 1 (physiological saline) at the time point at which the maximum response is recorded (J Ocul Pharmacol Ther. 2010 April; 26(2): 125-132)

patients = conditions: cited from earlier work
humans = conditions: phase III clinical trial; cited from earlier work
[5] = dose 0.02%, versus physiological saline group

YSK4, sequence (Q56UN5 whole entry): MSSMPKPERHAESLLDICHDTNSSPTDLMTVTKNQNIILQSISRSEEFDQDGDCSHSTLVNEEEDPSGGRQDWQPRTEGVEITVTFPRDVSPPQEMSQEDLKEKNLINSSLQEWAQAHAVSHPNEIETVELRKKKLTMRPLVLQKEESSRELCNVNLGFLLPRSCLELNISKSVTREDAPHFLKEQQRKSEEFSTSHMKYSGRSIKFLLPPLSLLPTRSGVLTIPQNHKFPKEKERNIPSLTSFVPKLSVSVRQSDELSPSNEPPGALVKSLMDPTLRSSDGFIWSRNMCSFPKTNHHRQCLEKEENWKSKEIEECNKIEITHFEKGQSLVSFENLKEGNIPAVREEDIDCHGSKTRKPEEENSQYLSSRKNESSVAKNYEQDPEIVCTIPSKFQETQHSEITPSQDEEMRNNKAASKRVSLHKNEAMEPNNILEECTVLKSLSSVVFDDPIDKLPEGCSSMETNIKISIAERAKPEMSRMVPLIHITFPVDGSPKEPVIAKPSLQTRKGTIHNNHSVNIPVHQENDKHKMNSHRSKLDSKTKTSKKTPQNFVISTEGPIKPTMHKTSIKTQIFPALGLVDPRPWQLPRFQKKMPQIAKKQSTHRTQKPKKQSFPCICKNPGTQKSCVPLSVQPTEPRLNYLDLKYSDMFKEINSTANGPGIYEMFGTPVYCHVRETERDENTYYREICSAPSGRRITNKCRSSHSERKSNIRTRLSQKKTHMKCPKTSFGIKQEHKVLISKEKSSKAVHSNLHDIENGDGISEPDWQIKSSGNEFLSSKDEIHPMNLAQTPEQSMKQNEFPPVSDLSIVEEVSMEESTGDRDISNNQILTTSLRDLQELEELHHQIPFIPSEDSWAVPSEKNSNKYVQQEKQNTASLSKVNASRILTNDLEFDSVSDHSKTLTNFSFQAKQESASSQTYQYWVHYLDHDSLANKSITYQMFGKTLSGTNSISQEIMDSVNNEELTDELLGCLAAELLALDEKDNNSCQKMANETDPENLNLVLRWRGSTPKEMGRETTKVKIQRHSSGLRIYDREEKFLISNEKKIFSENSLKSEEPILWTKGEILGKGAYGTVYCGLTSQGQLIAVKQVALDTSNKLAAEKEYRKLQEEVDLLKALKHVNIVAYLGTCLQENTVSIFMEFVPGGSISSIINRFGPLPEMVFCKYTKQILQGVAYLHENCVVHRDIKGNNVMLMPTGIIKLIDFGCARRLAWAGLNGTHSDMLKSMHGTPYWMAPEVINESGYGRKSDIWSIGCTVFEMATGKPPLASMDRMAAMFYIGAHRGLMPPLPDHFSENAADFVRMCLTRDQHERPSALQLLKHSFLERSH
ROCK1, sequence (Q13464 whole entry, species assumed): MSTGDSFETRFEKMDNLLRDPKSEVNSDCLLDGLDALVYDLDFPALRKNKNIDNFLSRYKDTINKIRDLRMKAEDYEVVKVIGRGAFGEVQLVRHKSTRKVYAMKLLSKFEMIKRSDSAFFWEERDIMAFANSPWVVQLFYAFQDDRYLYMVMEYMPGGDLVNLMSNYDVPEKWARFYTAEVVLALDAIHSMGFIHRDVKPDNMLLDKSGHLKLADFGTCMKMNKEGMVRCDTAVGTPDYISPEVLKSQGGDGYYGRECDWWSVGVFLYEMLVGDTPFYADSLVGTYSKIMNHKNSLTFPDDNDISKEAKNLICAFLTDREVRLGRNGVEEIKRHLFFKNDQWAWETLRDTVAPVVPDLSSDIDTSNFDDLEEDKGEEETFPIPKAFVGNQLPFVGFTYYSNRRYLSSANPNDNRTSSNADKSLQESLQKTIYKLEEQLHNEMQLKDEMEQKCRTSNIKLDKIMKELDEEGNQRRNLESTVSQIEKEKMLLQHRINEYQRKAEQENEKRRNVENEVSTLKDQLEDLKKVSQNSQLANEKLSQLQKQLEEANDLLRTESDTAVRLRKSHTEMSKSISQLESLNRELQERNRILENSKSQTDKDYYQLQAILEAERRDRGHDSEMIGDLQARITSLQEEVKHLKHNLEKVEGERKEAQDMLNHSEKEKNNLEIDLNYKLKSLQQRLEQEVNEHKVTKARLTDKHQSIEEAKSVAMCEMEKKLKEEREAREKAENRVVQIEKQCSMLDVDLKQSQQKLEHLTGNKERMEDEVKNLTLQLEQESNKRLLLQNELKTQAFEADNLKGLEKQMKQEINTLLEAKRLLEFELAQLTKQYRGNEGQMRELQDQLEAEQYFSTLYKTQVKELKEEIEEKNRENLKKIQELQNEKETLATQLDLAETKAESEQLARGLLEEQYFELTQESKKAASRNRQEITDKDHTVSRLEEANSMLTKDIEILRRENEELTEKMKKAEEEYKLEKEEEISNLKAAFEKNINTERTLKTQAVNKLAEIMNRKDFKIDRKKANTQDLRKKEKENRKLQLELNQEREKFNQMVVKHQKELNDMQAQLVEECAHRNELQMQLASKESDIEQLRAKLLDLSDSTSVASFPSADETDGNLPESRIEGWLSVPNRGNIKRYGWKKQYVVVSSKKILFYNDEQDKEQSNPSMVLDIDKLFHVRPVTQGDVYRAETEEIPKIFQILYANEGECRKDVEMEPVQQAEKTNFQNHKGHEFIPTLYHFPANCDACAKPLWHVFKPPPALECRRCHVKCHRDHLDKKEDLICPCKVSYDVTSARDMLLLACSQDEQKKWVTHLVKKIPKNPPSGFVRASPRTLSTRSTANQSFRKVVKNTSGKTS
MYLK4, sequence (Q86YV6 whole entry): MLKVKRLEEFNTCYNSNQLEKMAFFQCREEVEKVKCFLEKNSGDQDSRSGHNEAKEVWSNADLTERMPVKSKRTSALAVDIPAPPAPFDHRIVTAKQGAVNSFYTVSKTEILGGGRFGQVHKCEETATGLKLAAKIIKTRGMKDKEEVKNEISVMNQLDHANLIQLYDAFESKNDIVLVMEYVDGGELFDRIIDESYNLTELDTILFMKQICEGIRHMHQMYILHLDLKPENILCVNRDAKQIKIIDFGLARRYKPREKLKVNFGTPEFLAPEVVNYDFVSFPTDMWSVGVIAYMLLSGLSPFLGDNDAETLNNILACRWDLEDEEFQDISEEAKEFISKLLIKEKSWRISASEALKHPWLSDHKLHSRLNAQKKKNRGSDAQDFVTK

Compound	IC50 (ROCK1) [µM]	IC50 (MYLK4) [µM]	IC50 (YSK4) [µM]	time point at which maximum effect is achieved ([1]; dose 1%) [h]	Intraocular pressure difference (mmHg) ([1]; dose 1%)	maximum effect (Emax) dose in the normal intraocular pressure rabbit model [3] [%]	further results
NCC(C(=O)Nc1ccc(-c2cn[nH]c2)cc1)c1ccccc1 (racemic) [Compound 7, N-(4-(1H-pyrazol-4-yl)phenyl)-3-amino-2-phenylpropanamide dihydrochloride]	0.001 to 0.01	0.01 to 0.1	> 1	4	5.1	1	Maximum intraocular pressure difference (mmHg) ([2]; dose 0.5%): 6.7 ± 1.6 mmHg; Maximum intraocular pressure difference (mmHg) ([2]; dose 1%): 11.8 ± 0.8 mmHg; OECD Score: Chemosis (rabbit eyes; Therapeutic index: 3): 0; OECD Score: Discharge (rabbit eyes; Therapeutic index: 3): 1; OECD Score: Redness (rabbit eyes; Therapeutic index: 3): 1; OECD Score: Total (rabbit eyes; Therapeutic index: 3): 2
Cc1ccc(C(=O)OCc2ccc([C@@H](CN)C(=O)Nc3ccc4cnccc4c3)cc2)c(C)c1 [AR-13324, Netarsudil, reference compound]		> 1		6	4.5		AUC ([4]; dose 0.02%, intraocular pressure over 0-5 hours): 132.9; Maximum intraocular pressure difference (%) [4, 5]: −20.8%; Maximum intraocular pressure difference (mm Hg) [4, 5]: −7.7 ± 4.2 mm Hg; difference compared with the physiological saline or the vehicle (t-test) ([4]; eye drop containing 0.02%): no statistically significant difference; reduction of the intraocular pressure ([4]; eye drop containing 0.02%): about 7.7±4.2 mmHg; Maximum intraocular pressure difference (mmHg) ([2]; dose 0.02%): 3.6 ± 2.1 mmHg; reduction of intraocular pressure in percent ([2]; eye drop containing 0.02%): about 11.0%; efficacy compared with Timolol (patients; patients <25 mmHg): comparable to Timolol; efficacy compared with Timolol (patients; patients with intraocular pressure >25 mmHg): not as effective as the conventional glaucoma treatment drug Timolol; OECD Score: Chemosis (rabbit eyes; Therapeutic index: 2): 1; OECD Score: Discharge (rabbit eyes; Therapeutic index: 2): 2; OECD Score: Redness (rabbit eyes; Therapeutic index: 2): 1; OECD Score: Total (rabbit eyes; Therapeutic index: 2): 4
NCC(C(=O)Nc1ccc(-c2cn[nH]c2)cc1)c1ccc(F)cc1 (centres unmarked) [Compound 8, N-(4-(1H-pyrazol-4-yl)phenyl)-3-amino-2-(4-fluorophenyl) propanamide dihydrochloride]	0.001 to 0.01	0.01 to 0.1	> 1	6	5.2	1	
Cc1ccc(C(=O)OCc2ccc(C(CN)C(=O)Nc3ccc(-c4cn[nH]c4)cc3)cc2)c(C)c1 (centres unmarked) [Compound 12, 4-(1-((4-(1H-pyrazol-4-yl)phenyl)amino)-3-amino-1-oxopropan-2-yl) benzyl 2,4-dimethylbenzoate dihydrochloride]	0.01 to 0.1	0.1 to 1	> 1			0.25	time point at which maximum effect is achieved ([1]; dose 0.25%): 6 h; Intraocular pressure difference (mmHg) ([1]; dose 0.25%): 2.0 mmHg
NCC(C(=S)Nc1ccc(-c2cn[nH]c2)cc1)c1ccccc1 (centres unmarked) [Compound 14, N-(4-(1H-pyrazol-4-yl)phenyl)-3-amino-2-phenylpropanethioamide dihydrochloride]	0.001 to 0.01	0.1 to 1	> 1			0.5	time point at which maximum effect is achieved ([1]; dose 0.5%): 6 h; Intraocular pressure difference (mmHg) ([1]; dose 0.5%): 2.5 mmHg
N#C/N=C(/NCc1ccccc1)Nc1ccc(-c2cn[nH]c2)cc1 [Compound 16, 1-(4-(1H-pyrazol-4-yl)phenyl)-3-benzyl-2-cyanoguanidine hydrochloride]		> 10	> 10				IC50 (ROCK1; read-out: ROCK1 IC50): > 10 µM
NCCN(Cc1ccc(F)cc1)C(=O)c1ccc(-c2cn[nH]c2)cc1 [Compound 17, N-(2-aminoethyl)-N-(4-fluorobenzyl)-4-(1H-pyrazol-4-yl)benzamide dihydrochloride]	0.1 to 1	> 10	> 10				
NCC(C(=O)Nc1ccc(-c2cn[nH]c2)cc1F)c1ccccc1 (centres unmarked) [Compound 19, 3-amino-N-(2-fluoro-4-(1H-pyrazol-4-yl)phenyl)-2-phenylpropanamide dihydrochloride]	0.01 to 0.1	0.1 to 1	> 1				
C[C@H]1CNCCCN1S(=O)(=O)c1cccc2cncc(F)c12 [Ripasudil]							incidence of mild conjunctival hyperemia (humans): up to 75%
